Legend:
PDE7B = PDE7B (Homo sapiens (Human), UniProt Q9NP56); experiment: PDE7 phosphodiesterase scintillation proximity assay (SPA), PDE7B; assay type: biochemical; details: for Fold Selectivity for PDE7A versus PDE7B: IC50 against PDE7B divided by IC50 against PDE7A; for 7A/7B Ratio: ratio of the PDE7B and PDE7A IC50 values; for selectivity for inhibition of the PDE7B enzyme as compared to the other PDEs: versus PDE1B, 2A, 3A, 4A, 5A, 8A, 9A, 10A, 11A
PDE10A = PDE10A (Mus musculus (Mouse), UniProt Q8CA95); experiment: PDE selectivity SPA assay, PDE10A; assay type: biochemical; details: IC50 against murine PDE10A divided by IC50 against PDE7A
Chain of PDE10A (Q8CA95 whole entry): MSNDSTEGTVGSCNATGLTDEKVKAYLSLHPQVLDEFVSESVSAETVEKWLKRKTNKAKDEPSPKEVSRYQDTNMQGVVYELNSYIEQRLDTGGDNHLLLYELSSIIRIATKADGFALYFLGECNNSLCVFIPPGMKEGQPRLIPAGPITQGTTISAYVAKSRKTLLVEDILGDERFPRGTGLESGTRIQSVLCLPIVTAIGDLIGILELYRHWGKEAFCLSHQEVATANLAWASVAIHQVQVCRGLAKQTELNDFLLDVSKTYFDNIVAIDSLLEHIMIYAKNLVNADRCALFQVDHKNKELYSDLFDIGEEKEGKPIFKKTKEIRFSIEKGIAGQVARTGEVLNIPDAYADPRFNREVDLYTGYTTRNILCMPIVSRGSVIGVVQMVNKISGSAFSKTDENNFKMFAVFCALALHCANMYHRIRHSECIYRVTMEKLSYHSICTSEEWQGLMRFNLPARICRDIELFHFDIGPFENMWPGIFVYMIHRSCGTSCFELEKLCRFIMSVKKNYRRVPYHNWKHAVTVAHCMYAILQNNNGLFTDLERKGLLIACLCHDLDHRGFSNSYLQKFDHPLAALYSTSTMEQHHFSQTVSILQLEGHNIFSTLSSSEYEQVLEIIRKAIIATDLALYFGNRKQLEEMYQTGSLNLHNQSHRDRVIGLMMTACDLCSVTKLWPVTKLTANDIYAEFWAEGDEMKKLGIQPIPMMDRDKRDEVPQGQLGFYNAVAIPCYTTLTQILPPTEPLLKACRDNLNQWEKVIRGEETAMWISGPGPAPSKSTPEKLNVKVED
Experimental: (§1) Phosphodiesterase activity was measured by a scintillation proximity assay (SPA, GE Healthcare: Product Code TRKQ7100) with [^3H]-cAMP as the substrate for PDEs 3A, 4A, 8A, or with [^3H]-cGMP as the substrate for PDEs 1B, 2A, 5A, 9A, 10A and 11A. Purified human PDE1B, PDE2A, PDE3A, PDE4A, PDE5A, PDE8A, PDE9A and PDE11A4 were obtained from BPS Bioscience, San Diego, Calif. Purified murine PDE10A was also obtained from BPS Biosciences. […] Therefore, the results obtained using murine PDE10A are believed to be representative of human PDE10.
(§2) The purified PDE enzymes were each diluted and stored in a solution containing 25 mM Tris-Cl (pH 8.0), 100 mM NaCl, 0.05% Tween 20, 50% glycerol, and 3 mM DTT. PDE assays were carried out in the following assay cocktail (final concentrations): 50 mM Tris-Cl (pH 8.0), 8.3 mM MgCl2, 1.7 mM EGTA, 0.5 mg/ml BSA, 2.5% DMSO and between 0.2 ng and 6 ng of the PDE protein (depending on the enzyme activity) in a final volume of 0.1 mL.
(§3) Reactions were initiated by addition of enzyme, incubated for 20 minutes at 30° C. and then terminated by the addition of 50 μl of SPA beads containing Zn^2+.
(§4) The mixture was shaken, and allowed to settle for 3 hours. Then the production of [^3H]-AMP or [^3H]-GMP from the substrate was quantitated by scintillation counting in a Wallac® plate counter. […]

PDE2A = PDE2A (Homo sapiens (Human), UniProt O00408); experiment: PDE selectivity SPA assay, PDE2A; assay type: biochemical; details: IC50 against PDE2A divided by IC50 against PDE7A
Chain of PDE2A (O00408 whole entry): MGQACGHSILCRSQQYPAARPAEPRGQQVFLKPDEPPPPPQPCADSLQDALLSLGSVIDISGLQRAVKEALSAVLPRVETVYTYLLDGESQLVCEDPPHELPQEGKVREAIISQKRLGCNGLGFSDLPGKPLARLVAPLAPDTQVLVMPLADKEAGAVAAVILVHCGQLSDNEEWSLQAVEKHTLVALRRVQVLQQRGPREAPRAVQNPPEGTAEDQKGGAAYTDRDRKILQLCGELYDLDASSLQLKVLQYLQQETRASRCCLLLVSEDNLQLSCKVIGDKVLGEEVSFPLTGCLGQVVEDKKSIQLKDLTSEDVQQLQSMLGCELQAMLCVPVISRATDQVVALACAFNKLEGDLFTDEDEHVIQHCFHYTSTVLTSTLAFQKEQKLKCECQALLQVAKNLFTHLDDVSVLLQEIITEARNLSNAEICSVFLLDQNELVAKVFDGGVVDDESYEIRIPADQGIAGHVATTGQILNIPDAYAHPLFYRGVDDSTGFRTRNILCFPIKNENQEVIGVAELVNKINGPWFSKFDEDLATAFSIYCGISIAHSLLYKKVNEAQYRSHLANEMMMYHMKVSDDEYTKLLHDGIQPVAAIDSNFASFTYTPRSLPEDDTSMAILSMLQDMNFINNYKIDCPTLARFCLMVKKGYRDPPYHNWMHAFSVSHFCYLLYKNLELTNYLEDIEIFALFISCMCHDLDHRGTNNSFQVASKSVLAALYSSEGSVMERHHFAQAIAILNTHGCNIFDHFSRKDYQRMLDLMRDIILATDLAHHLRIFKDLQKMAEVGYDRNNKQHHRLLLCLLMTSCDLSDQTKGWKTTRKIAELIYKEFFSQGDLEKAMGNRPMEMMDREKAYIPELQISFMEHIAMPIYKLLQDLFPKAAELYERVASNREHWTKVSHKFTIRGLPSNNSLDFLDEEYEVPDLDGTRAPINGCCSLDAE
Experimental: as §1, §2, §3, §4

PDE8A = PDE8A (Homo sapiens (Human), UniProt O60658); experiment: PDE selectivity SPA assay, PDE8A; assay type: biochemical; details: IC50 against PDE8A divided by IC50 against PDE7A
Chain of PDE8A (O60658 whole entry): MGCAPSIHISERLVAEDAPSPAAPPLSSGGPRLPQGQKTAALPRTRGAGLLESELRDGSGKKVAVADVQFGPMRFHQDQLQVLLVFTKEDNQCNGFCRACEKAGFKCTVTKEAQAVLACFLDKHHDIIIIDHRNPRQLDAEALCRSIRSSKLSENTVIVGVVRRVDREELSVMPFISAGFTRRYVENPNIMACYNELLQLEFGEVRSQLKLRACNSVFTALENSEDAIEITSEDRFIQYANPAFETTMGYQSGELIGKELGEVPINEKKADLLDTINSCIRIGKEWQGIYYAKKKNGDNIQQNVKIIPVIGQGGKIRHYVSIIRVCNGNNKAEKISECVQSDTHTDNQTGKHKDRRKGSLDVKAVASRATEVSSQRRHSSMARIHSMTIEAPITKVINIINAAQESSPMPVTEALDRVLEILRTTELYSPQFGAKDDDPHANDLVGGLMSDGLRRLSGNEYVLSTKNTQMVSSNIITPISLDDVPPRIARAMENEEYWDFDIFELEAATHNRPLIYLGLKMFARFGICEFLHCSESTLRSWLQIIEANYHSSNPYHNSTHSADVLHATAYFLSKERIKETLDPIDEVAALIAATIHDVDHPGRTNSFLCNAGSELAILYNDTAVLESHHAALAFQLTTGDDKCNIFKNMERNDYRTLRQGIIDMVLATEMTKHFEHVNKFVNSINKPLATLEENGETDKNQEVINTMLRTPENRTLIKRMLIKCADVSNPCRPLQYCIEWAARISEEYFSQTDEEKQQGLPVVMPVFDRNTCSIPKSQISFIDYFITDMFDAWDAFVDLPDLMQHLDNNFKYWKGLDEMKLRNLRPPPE

MPTP-treated mice = experiment: inked paw stride length in the MPTP mouse model of Parkinson's disease, initial study (Example 5); assay type: in vivo; details: for effect on stride length of saline-treated mice, in words: 20 minutes after dosing
Experimental: Adult male C57BL/6J; retired breeders, aged between 7-9 months (Jackson Laboratory, Bar Harbor, Me., USA), singly housed.
Mice received 2 subcutaneous injections of methylphenyltetrahydropyridine (“MPTP”) at a dose of 15 mg/kg (free base) with a 10-12 hour interval between injections. Control mice (sham lesion groups) were administered saline instead of MPTP.
Seven days after MPTP or saline administration, OM69 was administered to mice. For each dose, a 100× stock of OM69 compound was prepared in 100% DMSO and subsequently diluted 100× into phosphate buffered saline (PBS). Then 100 μL of this 1× solution was administered via intraperitoneal (IP) injection.
Prior to injection with MPTP or saline, animals were pre-trained to walk across a clean sheet of paper into their home cage without stopping. For assessment of stride length, animals had their forepaws placed in black ink and the length of forepaw steps during normal walking (in a straight line only) was measured. The animals were immediately put back into their home cage upon completion of the task. Stride length was determined by measuring the distance between each step on the same side of the body, measuring from the middle toe of the first step to the heel of the second step. An average of at least four clear steps was calculated.
Retired breeder male mice (12-15 per group, ˜48-60 animals total) were treated with either saline or 2×15 mg/kg MPTP (12 saline; […]) to induce a Parkinsonian state (neurochemical loss of dopamine with corresponding behavioral deficits).
On day eight stride length was measured again, and the control value for stride length was derived from the stride length of saline-treated animals. Following this measurement the first treatments with L-dopa (5 mg/kg) or OM69 (0.1 mg/kg) were administered on day eight, as shown in FIG. 8. Stride length was then measured for each animal 20 minutes after dosing. […] Dosing with the treatments shown in FIG. 8 was carried out on successive days, with stride length measured 20 minutes after each dosing. As mentioned above, it was previously determined from pharmacokinetic studies that OM69 is washed out of the mice within 12 hours after dosing, so the stride length test carried out 20 minutes after dosing was believed to be measuring the effect of only the compounds administered on the day of treatment.
On day nine Group 1 animals were treated with L-dopa (1 mg/kg), and Group 2 animals were treated with OM69 (0.01 mg/kg). On day ten the treatment groups were crossed over, and Group 1 animals were treated with OM69 (0.01 mg/kg), and Group 2 animals were treated with L-dopa (1 mg/kg).
As further shown in FIG. 8, for the combination studies, all the mice in Group 1 and Group 2 were combined. On day 11 following MPTP administration, all the animals in Group 1 and Group 2 (n=9) were treated with the combination of L-dopa (1 mg/kg) and OM69 (0.01 mg/kg), with the stride length test carried out 20 minutes after dosing. On day 12 following MPTP administration, all the animals in Group 1 and Group 2 (n=9) were treated with the combination of L-dopa (1 mg/kg) and OM69 (0.03 mg/kg) with the stride length test carried out 20 minutes after dosing. In these combination studies carried out on day 11 and day 12, the average stride length data from two of the nine animals was not scorable because these two animals either ran rather than walking at a normal speed, or they kept starting and stopping rather than walking continuously. Therefore, these two animals were excluded, and only the remaining seven animals (n=7) were scored for the combination studies.
To assess and compare the effects of OM69 and L-dopa at these doses, data from mice with equivalent dosing was pooled. Thus, the average stride length for animals treated with L-dopa (1 mg/kg) was determined using measurements obtained from all nine animals. […]

Chain of PDE7B (Q9NP56 107-450 limits assumed): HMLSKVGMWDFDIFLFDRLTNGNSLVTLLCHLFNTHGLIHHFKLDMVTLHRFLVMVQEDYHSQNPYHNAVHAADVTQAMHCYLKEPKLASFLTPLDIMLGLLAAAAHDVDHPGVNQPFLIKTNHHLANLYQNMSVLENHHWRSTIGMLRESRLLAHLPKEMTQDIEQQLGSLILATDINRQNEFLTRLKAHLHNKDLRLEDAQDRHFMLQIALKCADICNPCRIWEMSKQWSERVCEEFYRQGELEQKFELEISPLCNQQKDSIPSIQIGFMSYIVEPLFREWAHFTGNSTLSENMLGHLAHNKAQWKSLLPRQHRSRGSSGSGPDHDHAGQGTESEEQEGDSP

Compound	IC50 (PDE7B) [nM]	potency of PDE7B inhibition, in words (PDE7B)	Fold Selectivity for PDE7A versus PDE7B (PDE7B) [fold]	7A/7B Ratio (PDE7B)	selectivity for inhibition of the PDE7B enzyme as compared to the other PDEs (PDE7B)	Fold Selectivity for PDE7A versus PDE10A (PDE10A) [fold]	Fold Selectivity for PDE7A versus PDE2A (PDE2A)	Fold Selectivity for PDE7A versus PDE8A (PDE8A) [fold]	effect on stride length, in words (MPTP-treated mice; MPTP-treated mice, L-dopa 1 mg/kg)	effect on stride length, in words (MPTP-treated mice; MPTP-treated mice, L-dopa 5 mg/kg)	dose dependence of the effect on stride length, in words (MPTP-treated mice; MPTP-treated mice, L-dopa 1 and 5 mg/kg)	effect on stride length of saline-treated mice, in words (MPTP-treated mice; L-dopa 5 mg/kg)	effect on stride length, in words (MPTP-treated mice; MPTP-treated mice, OM69 0.01 mg/kg)	effect on stride length, in words (MPTP-treated mice; MPTP-treated mice, OM69 0.1 mg/kg IP)	L-dopa dose with the same effect on stride length, relative to the OM69 dose (MPTP-treated mice; OM69 0.1 mg/kg IP versus L-dopa 5 mg/kg) [fold]	effect on stride length of saline-treated mice, in words (MPTP-treated mice; OM69 0.1 mg/kg)
O=C1Nc2c(Cl)ccc(OCCO)c2C2(CCCCC2)N1 [OM955]	106	moderate potency	2.0	2.05	greater than 50 fold	379	209 fold	>192	–	–	–	–	–	–	–	–
N[C@@H](Cc1ccc(O)c(O)c1)C(=O)O [L-dopa, levodopa, reference compound]	–	–	–	–	–	–	–	–	only a small effect	fully restore the stride length to that seen without MPTP treatment	increases their stride length in a dose-dependent manner	Neither L-dopa (5 mg/kg) nor OM69 (0.1 mg/kg) altered the stride length of saline-treated mice	–	–	–	–
COc1cc(N)ccc1-c1cc2c(c(=O)[nH]1)C(C1CCCCC1)N=[N+]2C (stereo not drawn) [OM69]	4.8	high potency	3.7	3.69	250 fold	1050	11,100 fold	>7700	–	–	–	–	only a small effect	fully restore the stride length to that seen without MPTP treatment	50	Neither L-dopa (5 mg/kg) nor OM69 (0.1 mg/kg) altered the stride length of saline-treated mice

Source: patent US8637528B2, “Use of PDE7 inhibitors for the treatment of movement disorders” (Omeros Corporation, priority 2007, dated 2014)
